From ChEMBL document CHEMBL5543078, “Peptidomimetics as potent dual SARS-CoV-2 cathepsin-L and main protease inhibitors: In silico design, synthesis and pharmacological characterization” (Eur J Med Chem, 2024)
Calls of active or inactive are those of the source. The rule behind the calls is not given here. Non-standard residues stand in square brackets, D forms with d. Residues, ends and D or L forms follow the SMILES beside them. *: point of attachment. AllylGly = C=CC[C@H](N)C(=O)O; Acryloyl = C=CC(=O)*; NHBn = c1ccc(CN*)cc1; ClAc = O=C(CCl)*

Key:
SARS-CoV-2 [1] = assay: microbe, parasite or virus in culture; details: Severe acute respiratory syndrome coronavirus 2, Wuhan/WIV04/2020, Vero
Description: Antiviral activity against SARS-CoV-2 Wuhan/WIV04/2020 infected in African green monkey Vero cells assessed as reduction in virus-induced cytopathic effect incubated for 6 to 7 days by microscopic analysis

SARS-CoV-2 [2] = assay: microbe, parasite or virus in culture; details: Severe acute respiratory syndrome coronavirus 2, NVDBB-2220 (Alpha), Vero
Description: Antiviral activity against SARS-CoV-2 NVDBB-2220 (Alpha) infected in African green monkey Vero cells assessed as reduction in virus-induced cytopathic effect incubated for 6 to 7 days by microscopic analysis

SARS-CoV-2 [3] = assay: microbe, parasite or virus in culture; details: Severe acute respiratory syndrome coronavirus 2, Omicron B1.1.529, Vero
Description: Antiviral activity against SARS-CoV-2 Omicron B1.1.529 infected in African green monkey Vero cells assessed as reduction in virus-induced cytopathic effect incubated for 6 to 7 days by microscopic analysis

SARS-CoV-2 [4] = assay: microbe, parasite or virus in culture; details: Severe acute respiratory syndrome coronavirus 2, 860-J1 (Delta), Vero
Description: Antiviral activity against SARS-CoV-2 860-J1 (Delta) infected in African green monkey Vero cells assessed as reduction in virus-induced cytopathic effect incubated for 6 to 7 days by microscopic analysis

Human coronavirus OC43 = type: functional, organism-based
[5] = target: Replicase polyprotein 1ab (Severe acute respiratory syndrome coronavirus 2, UniProt P0DTD1); assay: Inhibition of recombinant SARS-CoV-2 main protease using DABCYL-KTSAVLQSGFRKME-EDANS as fluorescent substrate preincubated for 30 mins followed by substrate addition by FRET assay
[6] = Cytotoxicity against African green monkey Vero cells assessed as change in cell morphology by measuring minimum cytotoxic concentration by microscopic analysis; type: toxicity, cell-based; details: chlorocebus sabaeus
Human coronavirus 229E = type: functional, organism-based
[7] = Metabolic stability in human liver microsomes assessed as half life incubated upto 60 mins in presence of NADPH and UDPGA by LC-MS analysis; type: ADME, Microsome
[8] = Stability in simulated intestinal fluid assessed as parent compound remaining incubated upto 120 mins by LC-MS analysis; type: ADME; details: read-out: Stability
[9] = Metabolic stability in human liver microsomes assessed as intrinsic clearance incubated upto 60 mins in presence of NADPH by LC-MS analysis; type: ADME, Microsome; details: read-out: CLH
[10] = Half life in human plasma at 10 uM measured upto 180 mins by LC-MS analysis; type: ADME, cell-free
[11] = Metabolic stability in human liver microsomes assessed as half life incubated upto 60 mins in presence of NADPH by LC-MS analysis; type: ADME, Microsome
[12] = Stability in simulated gastric fluid assessed as parent compound remaining incubated upto 120 mins by LC-MS analysis; type: ADME; details: read-out: Stability
Procathepsin L = Procathepsin L (Homo sapiens, UniProt P07711); assay: Inhibition of Cathepsin L (unknown origin) using Z-Leu-Arg-AMC fluorometric dipeptide as substrate peincubated for 10 mins followed by substrate addition by fluorescence based assay
Chain of Procathepsin L (P07711 whole entry): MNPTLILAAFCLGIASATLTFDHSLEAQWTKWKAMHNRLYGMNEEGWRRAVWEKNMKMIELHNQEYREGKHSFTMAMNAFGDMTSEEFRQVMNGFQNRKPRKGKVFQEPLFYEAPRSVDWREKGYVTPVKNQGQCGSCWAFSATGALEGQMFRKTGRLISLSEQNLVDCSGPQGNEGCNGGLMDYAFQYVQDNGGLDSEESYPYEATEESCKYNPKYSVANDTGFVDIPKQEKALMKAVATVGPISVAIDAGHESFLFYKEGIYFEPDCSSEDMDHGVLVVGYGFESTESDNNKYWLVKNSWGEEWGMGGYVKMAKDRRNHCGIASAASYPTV

Structure (SMILES)	EC50 (SARS-CoV-2 [1])	EC50 (SARS-CoV-2 [2])	EC50 (SARS-CoV-2 [3])	EC50 (SARS-CoV-2 [4])	Activity (Human coronavirus OC43)	IC50 [5]	MCC [6]	Activity (Human coronavirus 229E)	half-life [7]	remaining at 2 h [8]	CLint scaled [9]	half-life at 10 µM [10]	half-life [11]	remaining at 2 h [12]	IC50 (Procathepsin L)
C=CC[C@H](NC(=O)CCl)C(=O)N[C@@H](CC=C)C(=O)N[C@H](CNCc1ccccc1)Cc1c[nH]c2ccccc12	4.29 µM	2.53 µM	15.2 µM	18.1 µM	Active	> 30 µM	> 100 µM	Active	–	–	–	–	–	–	–
CC(C)C[C@@H](NC(=O)CCl)C(=O)N[C@@H](Cc1c[nH]c2ccccc12)C(=O)NCc1ccccc1	0.08 µM	0.57 µM	1.37 µM	1.08 µM	Active	> 30 µM	> 100 µM	Active	75.3 min	> 80%	< 45 mL/min/kg	232 min	74.5 min	> 80%	–
O=C(CS)N[C@@H](Cc1ccccc1)C(=O)N[C@@H](Cc1c[nH]c2ccccc12)C(=O)NCc1ccccc1	> 100 µM	> 100 µM	> 100 µM	> 100 µM	Active	> 30 µM	> 100 µM	Active	–	–	–	–	–	–	–
C=CC[C@H](NC(=O)CCl)C(=O)N[C@@H](Cc1c[nH]c2ccccc12)C(=O)NCCN1CCOCC1	10.3 µM	10.7 µM	13.5 µM	29.2 µM	Active	> 30 µM	> 100 µM	Active	–	–	–	–	–	–	–
CC(C)C[C@H](NC(=O)CCl)C(=O)N[C@H](Cc1c[nH]c2ccccc12)C(=O)NCc1ccccc1	8.71 µM	> 20 µM	> 20 µM	> 20 µM	Active	14.6 µM	> 100 µM	Active	–	–	–	–	–	–	–
CC(C)C[C@@H](C(=O)NCC12CC3CC(CC(C3)C1)C2)N(Cc1ccccc1)C(=O)CCl	> 4 µM	> 4 µM	> 4 µM	> 4 µM	Active	> 30 µM	19 µM	Active	–	–	–	–	–	–	–
CC(C)C[C@H](NC(=O)CCl)C(=O)N[C@@H](Cc1c[nH]c2ccccc12)C(=O)NCc1ccccc1	0.27 µM	0.32 µM	1.28 µM	1.2 µM	Active	2.81 µM	> 100 µM	Active	21.1 min	> 80%	> 45 mL/min/kg	–	29.7 min	> 80%	–
C=CC(=O)N[C@@H](CC(C)C)C(=O)N[C@@H](Cc1c[nH]c2ccccc12)C(=O)NCc1ccccc1	> 100 µM	> 100 µM	> 100 µM	> 100 µM	Active	> 30 µM	> 100 µM	Active	–	–	–	–	–	–	–
CCN(CC)CCCC(C)Nc1ccnc2cc(Cl)ccc12 (stereo not given)	–	–	–	–	Active	–	–	Active	–	–	–	–	–	–	–
NC(=O)c1ncn([C@@H]2O[C@H](CO)[C@@H](O)[C@H]2O)n1	–	–	–	–	Active	–	–	Active	–	–	–	–	–	–	–
C=CC(=O)N[C@@H](Cc1ccccc1)C(=O)N[C@@H](Cc1c[nH]c2ccccc12)C(=O)NCc1ccccc1 (Acryloyl-Phe-Trp-NHBn)	> 20 µM	> 20 µM	> 20 µM	> 20 µM	Active	> 30 µM	> 100 µM	Active	–	–	–	–	–	–	> 30 µM
O=C(CCl)NCC(=O)N[C@@H](Cc1c[nH]c2ccccc12)C(=O)NCc1ccccc1 (ClAc-Gly-Trp-NHBn)	0.16 µM	0.3 µM	0.81 µM	0.54 µM	Active	> 30 µM	> 100 µM	Active	122 min	> 80%	< 15 mL/min/kg	–	346 min	> 80%	–
CC(C)C[C@H](NC(=O)CCl)C(=O)N[C@@H](Cc1ccccc1)C(=O)N[C@@H](Cc1c[nH]c2ccccc12)C(=O)NCc1ccccc1 (ClAc-Leu-Phe-Trp-NHBn)	4.81 µM	> 20 µM	> 100 µM	> 20 µM	Active	> 30 µM	> 100 µM	Active	–	–	–	–	–	–	–
COC(=O)[C@H](CCC(N)=O)NC(=O)[C@H](Cc1c[nH]c2ccccc12)NC(=O)[C@H](CC(C)C)NC(=O)CCl (ClAc-Leu-Trp-Gln-OMe)	> 100 µM	> 100 µM	> 100 µM	> 100 µM	Active	> 30 µM	> 100 µM	Active	–	–	–	–	–	–	–
O=C(CCl)N[C@@H](Cc1ccccc1)C(=O)N[C@@H](Cc1c[nH]c2ccccc12)C(=O)NCc1ccccc1 (ClAc-Phe-Trp-NHBn)	0.09 µM	0.68 µM	1.34 µM	1.3 µM	Active	0.73 µM	> 100 µM	Active	19.6 min	> 80%	> 45 mL/min/kg	–	38.3 min	> 80%	–
CC(C)C[C@H](NC(=O)[C@H](Cc1c[nH]c2ccccc12)NC(=O)CCl)C(=O)NCc1ccccc1 (ClAc-Trp-Leu-NHBn)	0.25 µM	0.41 µM	0.4 µM	1.25 µM	Active	8.32 µM	20 µM	Active	–	> 80%	–	24.4 min	–	> 80%	–
COC(=O)[C@H](CC(C)C)NC(=O)[C@H](Cc1c[nH]c2ccccc12)NC(=O)CCl (ClAc-Trp-Leu-OMe)	> 4 µM	> 20 µM	> 4 µM	> 20 µM	Active	> 30 µM	21 µM	Active	–	–	–	–	–	–	–
O=C(CCl)N[C@@H](Cc1ccc(O)cc1)C(=O)N[C@@H](Cc1c[nH]c2ccccc12)C(=O)NCc1ccccc1 (ClAc-Tyr-Trp-NHBn)	2.37 µM	3.46 µM	5.04 µM	12.3 µM	inactive	8.35 µM	> 100 µM	inactive	–	–	–	–	–	–	–
C=CC[C@H](NC(=O)CCl)C(=O)N[C@@H](Cc1c[nH]c2ccccc12)C(=O)NCc1ccccc1 (ClAc-[AllylGly]-Trp-NHBn)	0.49 µM	1.16 µM	5.87 µM	2.12 µM	Active	1.72 µM	> 100 µM	Active	–	–	–	–	–	–	–
CCOC(=O)[C@H]1O[C@@H]1C(=O)N[C@@H](CC(C)C)C(=O)NCCC(C)C [ALOXISTATIN]	–	–	–	–	Active	–	–	Active	–	–	–	–	–	–	0.034 µM
CC(C)C(=O)OC[C@H]1O[C@@H](n2ccc(NO)nc2=O)[C@H](O)[C@@H]1O [MOLNUPIRAVIR]	4.31 µM	5.44 µM	1.22 µM	6.04 µM	–	–	> 100 µM	–	–	–	–	–	–	–	–
CCC(CC)COC(=O)[C@H](C)N[P@](=O)(OC[C@H]1O[C@@](C#N)(c2ccc3c(N)ncnn23)[C@H](O)[C@@H]1O)Oc1ccccc1 [REMDESIVIR]	3.74 µM	2.93 µM	0.83 µM	3.74 µM	Active	–	> 40 µM	Active	–	–	–	–	–	–	–
